Tests used:
[1] = Solubility of the compound of Formula (1) in various solvents (excess compound, shaking, HPLC); format: physicochemical; conditions: for solubility at 24 h: thermodynamic from solid
Method: An excess amount of the compound of Formula (1) was added to 1 mL of each solvent described in Table 1 below and stirred for 24 hours at 25° C. while shaking at 200 rpm (Shaking incubator, SI 600R, JEIO TECH, Korea). Thereafter, a centrifugation was performed at 10,000 rpm for 10 minutes, and the supernatant was filtered using a membrane filter (0.2 μm), then diluted moderately with methanol and analyzed by HPLC.

[2] = as above; format: physicochemical

For CCCc1nc(C(F)(F)F)ccc1/C=C/C(=O)N[C@H](C)c1cc(F)c(NS(C)(=O)=O)c(F)c1 [compound of Formula (1), (R)—N-[1-(3,5-difluoro-4-methanesulfonylamino-phenyl)-ethyl]-3-(2-propyl-6-trifluoromethyl-pyridin-3-yl)-acrylamide], the solubility at 24 h ([1]; 25 °C, organic solvent or mixture, in dimethyl sulfoxide, diethylene glycol monoethyl ether, 2-pyrrolidone and polyethylene glycol (summary of Table 1)) was ≥ 100 mg/mL, the solubility at 24 h ([1]; oil or lipid, in Cocoyl caprylocaprate, 25° C., 24 hours) was 0.46 mg/mL and the solubility at 24 h ([1]; oil or lipid, in Corn oil, 25° C., 24 hours) was 1.8 mg/mL. The solubility at 24 h ([1]; oil or lipid, in Ethyl oleate, 25° C., 24 hours) was 1 mg/mL, the solubility at 24 h ([1]; oil or lipid, in Isopropyl myristate, 25° C., 24 hours) was 1.18 mg/mL and the solubility at 24 h ([1]; oil or lipid, in Miglyol, 25° C., 24 hours) was 1.4 mg/mL. For the same compound, the solubility at 24 h ([1]; oil or lipid, in Octyldodecanol, 25° C., 24 hours) was 1.77 mg/mL, the solubility at 24 h ([1]; oil or lipid, in Oleic acid, 25° C., 24 hours) was 0.43 mg/mL and the solubility at 24 h ([1]; oil or lipid, in Oleyl Alcohol, 25° C., 24 hours) was 6.32 mg/mL. It also gave a solubility at 24 h ([1]; oil or lipid, in Propylene glycol monocaprylate, 25° C., 24 hours) of 75 mg/mL, a solubility at 24 h ([1]; oil or lipid, in Propylene glycol monolaurate, 25° C., 24 hours) of 7.75 mg/mL and a solubility at 24 h ([1]; oil or lipid, in Triglycerides, Medium chain, 25° C., 24 hours) of 1.9 mg/mL. For the same compound, the solubility at 24 h ([1]; organic solvent or mixture, in 2-Pyrrolidinone, 25° C., 24 hours) was 212 mg/mL, the solubility at 24 h ([1]; organic solvent or mixture, in Acetonitrile, 25° C., 24 hours) was 108 mg/mL and the solubility at 24 h ([1]; organic solvent or mixture, in Caprylocaproyl polyoxyl-8 glycerides, 25° C., 24 hours) was 46.7 mg/mL. For the same compound, the solubility at 24 h ([1]; organic solvent or mixture, in Diethylene glycol monoethyl ether, 25° C., 24 hours) was 289 mg/mL, the solubility at 24 h ([1]; organic solvent or mixture, in Dimethyl sulfoxide, 25° C., 24 hours) was 632 mg/mL and the solubility at 24 h ([1]; organic solvent or mixture, in Dimethylacetamide, 25° C., 24 hours) was 80 mg/mL. It also gave a solubility at 24 h ([1]; organic solvent or mixture, in Ethanol, 25° C., 24 hours) of 75.3 mg/mL, a solubility at 24 h ([1]; organic solvent or mixture, in Glycerol, 25° C., 24 hours) of 0.84 mg/mL and a solubility at 24 h ([1]; organic solvent or mixture, in Lauroyl macrogol-32 glycerides, 25° C., 24 hours) of 24.1 mg/mL. The solubility at 24 h ([1]; organic solvent or mixture, in Methanol, 25° C., 24 hours) was 178 mg/mL, the solubility at 24 h ([1]; organic solvent or mixture, in Oleoyl polyoxyl-6 glycerides, 25° C., 24 hours) was 4.36 mg/mL and the solubility at 24 h ([1]; organic solvent or mixture, in Poloxamer 124, 25° C., 24 hours) was 66.7 mg/mL. It also gave a solubility at 24 h ([1]; organic solvent or mixture, in Polyethylene glycol(PEG) 300, 25° C., 24 hours) of 146 mg/mL, a solubility at 24 h ([1]; organic solvent or mixture, in Polyethylene glycol(PEG) 400, 25° C., 24 hours) of 168 mg/mL and a solubility at 24 h ([1]; organic solvent or mixture, in Polyethylene glycol-35 castor oil, 25° C., 24 hours) of 2.7 mg/mL. The solubility at 24 h ([1]; organic solvent or mixture, in Polyoxyl 40 hydrogenated castor oil, 25° C., 24 hours) was 36 mg/mL, the solubility at 24 h ([1]; organic solvent or mixture, in Polysorbate 20, 25° C., 24 hours) was 48 mg/mL and the solubility at 24 h ([1]; organic solvent or mixture, in Polysorbate 40, 25° C., 24 hours) was 37 mg/mL. The solubility at 24 h ([1]; organic solvent or mixture, in Polysorbate 60, 25° C., 24 hours) was 35 mg/mL, the solubility at 24 h ([1]; organic solvent or mixture, in Polysorbate 80, 25° C., 24 hours) was 11.8 mg/mL and the solubility at 24 h ([1]; organic solvent or mixture, in Propylene glycol, 25° C., 24 hours) was 25 mg/mL. The solubility at 24 h ([1]; organic solvent or mixture, in Triacetin, 25° C., 24 hours) was 56.5 mg/mL, the solubility at 24 h ([1]; in Purified water, 25° C., 24 hours) was 0.05 mg/mL and the solubility ([1]; water, background statement) was < 0.1 mg/mL. The solubility ([2]; aqueous with cosolvent or surfactant or cyclodextrin, in a 10% (w/w) aqueous solution of PEG 400) was ~0.08 mg/mL and the solubility in oil ([2]; oil, background statement) was “significantly low solubility in oil”.
